In US6127136A, “Detection of dioxin-like compounds by detection of transformed Ah receptor/ARNT complex” (Paracelsian, Inc., priority 1996, dated 2000):

How the values were obtained:
[1] = target: T1, transformed Ah receptor/ARNT complex (Cavia porcellus, UniProt Q6J287); assay: Ah-ELISA, cytosol volume, time and temperature optimization; assay type: biochemical, guinea pig (hepatic cytosol); set-up: from tissue; host or cells: hepatic cytosol of male Hartley guinea pigs (animals from Cornell Research Animal Resources)
Method: The reagents and ELISA plate were prepared as described in Example 8. The volume of cytosol, temperature of cytosol incubation and time of incubation were all varied independently. The test volume of cytosol was varied between 50 and 200 μl at 50 μl increments. […] The assay was with a cytosol incubation varying between 30 and 120 minutes at 30 minute increments.

[2] = target: T1, transformed Ah receptor/ARNT complex; assay: sandwich ELISA detecting transformed Ah receptor/ARNT complex, DRE and anti-ARNT dilutions; assay type: biochemical, guinea pig (hepatic cytosol); set-up: from tissue; host or cells: hepatic cytosol of male Hartley guinea pigs (animals from Cornell Research Animal Resources)
Method: Working dilution of anti-ARNT was diluted (1:200, 50 uL in 10 mL) in PBS plus 0.02% tween 20 plus 0.1% bovine serum albumin. Working dilution of anti-Rabbit/alkaline phosphatase (Sigma, St. Louis, Mo.) was prepared by diluting 20 uL into 20 mL PBS plus 0.02% tween 20 plus 0.1% bovine serum albumin to make a 1:1000 dilution. Diethanolamine buffer was prepared by dissolving 0.4 g Magnesium chloride hexahydrate, 0.8 g sodium azide, 338 mL diethanolamine in 2.5 L deionized water, adjusting pH to 9.8 with concentrated HCl, and adjusting volume to 4 liters. PnPP stock was prepared fresh by dissoving two 15 mg tablets of para-nitro phenyl phosphate (Sigma, St. Louis, Mo.) in 20 mL diethanolamine buffer.
B-DRE (sequence ID 2) and DRE-D (sequence ID 1) were hybridized as described above. Cytosol was prepared as described above. Thirty five mL of cytosol was thawed and pooled. The cytosol was divided into two 17 mL aliquots and treated with either 17 uL DMSO, sample labled (-) or 17 uL 10 uM TCDD in DMSO with the sample labled (+). DMSO-treated cytosol (1700 uL) was mixed with 10.6 uL hybridized DRE (sample labeled B-). TCDD-treated cytosol (1700 uL) was mixed with 10.6 uL hybridized DRE (sample labeled B+).
A neutravidin-coated 96 well ELISA plate (Pierce), with the standard 12×8 well matrix, labeled 1-12 horizontally and A-H vertically, was warmed to room temperature. DMSO treated cytosol (-) was put in wells A2-A12 x D2-D12 at 200 uL per well. TCDD treated cytosol (+) was put in wells E2-E12 x H2-H12 at 200 uL per well. Untreated Cytosol plus DRE sample (B-), 400 uL per well, was put in wells A1-D1. Treated Cytosol sample plus DRE (13+), 400 uL per well, was put in wells […]. The Untreated cytosol plus DRE sample (B-) and treated cytosol sample plus DRE (B+) were then serially diluted 1:1 across the plate, resulting in a serial dilution of DRE in either 200 uL treated or 200 uL untreated cytosol. The last column (A12H12) contained 400 uL, so 200 uL of that was discarded. Highest dilution of DRE in column A1-H1 was arbitrarily called 1, with the other dilutions labeled 0.5, 0.25 . . . 0.0005 respectively.
The ELISA plate was incubated with gentle rocking for 2 hours to allow the transformaton of Ah receptor, binding of Ah receptor with ARNT, and binding of the Ah receptor/ARNT complex to the biotinylated DRE, and binding of the biotinylated DRE to the neutravidin bound to the ELISA plate.
After 2 hours the plate was washed 3 times with 300 uL PBS plus 0.02% tween 20 and 400 uL of the working dilution of anti-ARNT added to rows A1-A12 and E1-E12 of the ELISA plate. 200 uL of PBS plus 0.02% tween 20 plus 0.1% bovine serum albumin was added to the remaining wells. […] After 2 hours the plate was washed as before and working dilution (1:1000) of anti-rabbit/alkaline phosphatase conjugate was added to all wells. The plate was incubated for a further 1 hour at room temperature with gentle rocking and then washed as before. PnPP stock was added to each well (200 uL) and the plate was incubated for 1 hour, at which time it was read at 405 nm in an ELISA plate reader and milli O.D. recorded.

T1 sequence (Q6J287 1-846): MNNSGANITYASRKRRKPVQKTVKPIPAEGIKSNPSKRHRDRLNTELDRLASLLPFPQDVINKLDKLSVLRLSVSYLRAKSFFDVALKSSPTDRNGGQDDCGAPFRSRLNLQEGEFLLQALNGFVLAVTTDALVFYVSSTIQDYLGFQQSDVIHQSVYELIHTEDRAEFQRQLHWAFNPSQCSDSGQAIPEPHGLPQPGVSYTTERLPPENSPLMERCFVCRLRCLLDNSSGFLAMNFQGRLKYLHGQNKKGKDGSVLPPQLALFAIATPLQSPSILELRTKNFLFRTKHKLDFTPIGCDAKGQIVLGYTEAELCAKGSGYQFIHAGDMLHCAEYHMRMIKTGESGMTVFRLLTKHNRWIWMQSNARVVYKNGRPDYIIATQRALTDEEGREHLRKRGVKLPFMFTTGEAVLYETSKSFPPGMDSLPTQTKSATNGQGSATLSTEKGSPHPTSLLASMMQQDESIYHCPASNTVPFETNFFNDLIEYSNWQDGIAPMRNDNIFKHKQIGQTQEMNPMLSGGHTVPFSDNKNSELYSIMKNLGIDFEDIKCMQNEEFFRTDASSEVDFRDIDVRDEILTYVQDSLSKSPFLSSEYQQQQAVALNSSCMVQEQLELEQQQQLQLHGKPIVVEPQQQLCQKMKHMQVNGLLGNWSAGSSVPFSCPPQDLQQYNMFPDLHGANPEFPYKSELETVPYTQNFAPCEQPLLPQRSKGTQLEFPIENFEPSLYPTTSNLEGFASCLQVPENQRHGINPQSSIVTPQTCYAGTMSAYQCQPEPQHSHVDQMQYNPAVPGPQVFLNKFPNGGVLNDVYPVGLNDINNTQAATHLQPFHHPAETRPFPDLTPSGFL
T1 sequence (Q0WXX3 1-790 partner): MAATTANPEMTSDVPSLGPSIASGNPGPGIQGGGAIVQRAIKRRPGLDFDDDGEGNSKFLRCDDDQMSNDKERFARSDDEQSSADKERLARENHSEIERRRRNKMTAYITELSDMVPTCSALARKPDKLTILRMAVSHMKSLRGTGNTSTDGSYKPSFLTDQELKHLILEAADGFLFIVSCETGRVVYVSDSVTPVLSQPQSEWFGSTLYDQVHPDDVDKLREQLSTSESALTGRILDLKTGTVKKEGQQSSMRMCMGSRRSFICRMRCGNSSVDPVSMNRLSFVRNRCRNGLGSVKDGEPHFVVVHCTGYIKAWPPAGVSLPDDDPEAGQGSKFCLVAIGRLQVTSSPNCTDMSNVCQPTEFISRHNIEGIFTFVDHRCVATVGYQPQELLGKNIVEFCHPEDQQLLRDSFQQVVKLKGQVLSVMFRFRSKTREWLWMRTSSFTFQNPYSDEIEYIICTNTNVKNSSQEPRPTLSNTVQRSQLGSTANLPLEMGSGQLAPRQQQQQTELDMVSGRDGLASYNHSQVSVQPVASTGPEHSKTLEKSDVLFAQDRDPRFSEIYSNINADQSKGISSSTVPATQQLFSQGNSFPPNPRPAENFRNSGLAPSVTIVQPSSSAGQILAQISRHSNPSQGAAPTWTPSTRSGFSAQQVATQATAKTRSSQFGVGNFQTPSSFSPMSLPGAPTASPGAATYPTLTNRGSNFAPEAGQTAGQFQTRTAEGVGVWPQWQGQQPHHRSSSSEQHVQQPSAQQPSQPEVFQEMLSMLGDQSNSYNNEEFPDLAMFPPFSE

Compound: Clc1cc2c(cc1Cl)Oc1cc(Cl)c(Cl)cc1O2 [TCDD, 2,3,7,8-tetrachlorodibenzo-p-dioxin]
- ave(+)-BG ([1]; 50 uL, 120 min, 30 C): 1006
- difference ([1]; 50 uL, 120 min, 30 C): 984
- ave(+)-BG ([1]; 100 uL, 120 min, 30 C): 1463
- difference ([1]; 100 uL, 120 min, 30 C): 1430
- ave(+)-BG ([1]; 150 uL, 120 min, 30 C): 1910
- difference ([1]; 150 uL, 120 min, 30 C): 1867
- ave(+)-BG ([1]; 200 uL, 30 min, 30 C): 394
- difference ([1]; 200 uL, 30 min, 30 C): 359
- ave(+)-BG ([1]; 200 uL, 30 min, 38 C): 525
- difference ([1]; 200 uL, 30 min, 38 C): 497
- ave(+)-BG ([1]; 200 uL, 60 min, 30 C): 1324
- difference ([1]; 200 uL, 60 min, 30 C): 1288
- ave(+)-BG ([1]; 200 uL, 90 min, 30 C): 1882
- difference ([1]; 200 uL, 90 min, 30 C): 1839
- ave(+)-BG ([1]; 200 uL, 120 min, 22 C): 1924
- difference ([1]; 200 uL, 120 min, 22 C): 1863
- ave(+)-BG ([1]; 200 uL, 120 min, 30 C): 2369
- difference ([1]; 200 uL, 120 min, 30 C): 2324
- ave(+)-BG ([1]; 200 uL, 120 min, 35 C): 959
- difference ([1]; 200 uL, 120 min, 35 C): 898
- response in sandwich ELISA ([2]; Example 7 conclusion): gives a differential response
- O.D. at 405 nm ([2]; anti-ARNT dilution 0.000625, DRE dilution 0.002, TCDD (+)): 463 milli O.D.
- O.D. at 405 nm ([2]; anti-ARNT dilution 0.000625, DRE dilution 0.004, TCDD (+)): 595 milli O.D.
- O.D. at 405 nm ([2]; anti-ARNT dilution 0.000625, DRE dilution 0.008, TCDD (+)): 726 milli O.D.
- O.D. at 405 nm ([2]; anti-ARNT dilution 0.000625, DRE dilution 0.016, TCDD (+)): 639 milli O.D.
- O.D. at 405 nm ([2]; anti-ARNT dilution 0.000625, DRE dilution 0.031, TCDD (+)): 562 milli O.D.
- O.D. at 405 nm ([2]; anti-ARNT dilution 0.000625, DRE dilution 0.063, TCDD (+)): 480 milli O.D.
- O.D. at 405 nm ([2]; anti-ARNT dilution 0.000625, DRE dilution 0.125, TCDD (+)): 411 milli O.D.
- O.D. at 405 nm ([2]; anti-ARNT dilution 0.000625, DRE dilution 0.25, TCDD (+)): 392 milli O.D.
- O.D. at 405 nm ([2]; anti-ARNT dilution 0.000625, DRE dilution 0.5, TCDD (+)): 393 milli O.D.
- O.D. at 405 nm ([2]; anti-ARNT dilution 0.000625, DRE dilution 1, TCDD (+)): 408 milli O.D.
- O.D. at 405 nm ([2]; anti-ARNT dilution 0.000625, DRE dilution 1E-03, TCDD (+)): 442 milli O.D.
- O.D. at 405 nm ([2]; anti-ARNT dilution 0.000625, DRE dilution 5E-04, TCDD (+)): 480 milli O.D.
- O.D. at 405 nm ([2]; anti-ARNT dilution 0.00125, DRE dilution 0.002, TCDD (+)): 595 milli O.D.
- O.D. at 405 nm ([2]; anti-ARNT dilution 0.00125, DRE dilution 0.004, TCDD (+)): 932 milli O.D.
- O.D. at 405 nm ([2]; anti-ARNT dilution 0.00125, DRE dilution 0.008, TCDD (+)): 1070 milli O.D.
- O.D. at 405 nm ([2]; anti-ARNT dilution 0.00125, DRE dilution 0.016, TCDD (+)): 916 milli O.D.
- O.D. at 405 nm ([2]; anti-ARNT dilution 0.00125, DRE dilution 0.031, TCDD (+)): 767 milli O.D.
- O.D. at 405 nm ([2]; anti-ARNT dilution 0.00125, DRE dilution 0.063, TCDD (+)): 537 milli O.D.
- O.D. at 405 nm ([2]; anti-ARNT dilution 0.00125, DRE dilution 0.125, TCDD (+)): 487 milli O.D.
- O.D. at 405 nm ([2]; anti-ARNT dilution 0.00125, DRE dilution 0.25, TCDD (+)): 406 milli O.D.
- O.D. at 405 nm ([2]; anti-ARNT dilution 0.00125, DRE dilution 0.5, TCDD (+)): 393 milli O.D.
- O.D. at 405 nm ([2]; anti-ARNT dilution 0.00125, DRE dilution 1, TCDD (+)): 387 milli O.D.
- O.D. at 405 nm ([2]; anti-ARNT dilution 0.00125, DRE dilution 1E-03, TCDD (+)): 484 milli O.D.
- O.D. at 405 nm ([2]; anti-ARNT dilution 0.00125, DRE dilution 5E-04, TCDD (+)): 498 milli O.D.
- O.D. at 405 nm ([2]; anti-ARNT dilution 0.0025, DRE dilution 0.002, TCDD (+)): 922 milli O.D.
- O.D. at 405 nm ([2]; anti-ARNT dilution 0.0025, DRE dilution 0.004, TCDD (+)): 1281 milli O.D.
- O.D. at 405 nm ([2]; anti-ARNT dilution 0.0025, DRE dilution 0.008, TCDD (+)): 1682 milli O.D.
- O.D. at 405 nm ([2]; anti-ARNT dilution 0.0025, DRE dilution 0.016, TCDD (+)): 1486 milli O.D.
- O.D. at 405 nm ([2]; anti-ARNT dilution 0.0025, DRE dilution 0.031, TCDD (+)): 1125 milli O.D.
- O.D. at 405 nm ([2]; anti-ARNT dilution 0.0025, DRE dilution 0.063, TCDD (+)): 804 milli O.D.
- O.D. at 405 nm ([2]; anti-ARNT dilution 0.0025, DRE dilution 0.125, TCDD (+)): 608 milli O.D.
- O.D. at 405 nm ([2]; anti-ARNT dilution 0.0025, DRE dilution 0.25, TCDD (+)): 532 milli O.D.
- O.D. at 405 nm ([2]; anti-ARNT dilution 0.0025, DRE dilution 0.5, TCDD (+)): 544 milli O.D.
- O.D. at 405 nm ([2]; anti-ARNT dilution 0.0025, DRE dilution 1, TCDD (+)): 585 milli O.D.
- O.D. at 405 nm ([2]; anti-ARNT dilution 0.0025, DRE dilution 1E-03, TCDD (+)): 680 milli O.D.
- O.D. at 405 nm ([2]; anti-ARNT dilution 0.0025, DRE dilution 5E-04, TCDD (+)): 722 milli O.D.
- O.D. at 405 nm ([2]; anti-ARNT dilution 0.005, DRE dilution 0.002, TCDD (+)): 1524 milli O.D.
- O.D. at 405 nm ([2]; anti-ARNT dilution 0.005, DRE dilution 0.004, TCDD (+)): 2029 milli O.D.
- O.D. at 405 nm ([2]; anti-ARNT dilution 0.005, DRE dilution 0.008, TCDD (+)): 2558 milli O.D.
- O.D. at 405 nm ([2]; anti-ARNT dilution 0.005, DRE dilution 0.016, TCDD (+)): 2122 milli O.D.
- O.D. at 405 nm ([2]; anti-ARNT dilution 0.005, DRE dilution 0.031, TCDD (+)): 1706 milli O.D.
- O.D. at 405 nm ([2]; anti-ARNT dilution 0.005, DRE dilution 0.063, TCDD (+)): 1202 milli O.D.
- O.D. at 405 nm ([2]; anti-ARNT dilution 0.005, DRE dilution 0.125, TCDD (+)): 963 milli O.D.
- O.D. at 405 nm ([2]; anti-ARNT dilution 0.005, DRE dilution 0.25, TCDD (+)): 777 milli O.D.
- O.D. at 405 nm ([2]; anti-ARNT dilution 0.005, DRE dilution 0.5, TCDD (+)): 765 milli O.D.
- O.D. at 405 nm ([2]; anti-ARNT dilution 0.005, DRE dilution 1, TCDD (+)): 771 milli O.D.
- O.D. at 405 nm ([2]; anti-ARNT dilution 0.005, DRE dilution 1E-03, TCDD (+)): 1070 milli O.D.
- O.D. at 405 nm ([2]; anti-ARNT dilution 0.005, DRE dilution 5E-04, TCDD (+)): 1191 milli O.D.
